In US8163718B2, “Nucleoside analogues containing phosphonate or phosphonamide groups” (Gilead Sciences, Inc., priority 2008, dated 2012):

System: naturally occurring non-Hodgkin's lymphoma
Test: Efficacy in a dog with naturally occurring non-Hodgkin's lymphoma (RECIST)
Format: in vivo
Set-up: key to Lymphnode R PSLN size / Lymphnode L PopLN size / Lymphnode L SMLN size / Lymphnode R SMLN size / Lymphnode L PSLN size: WNL refers to when a lymph node is decreased to a size considered within normal ranges for that node
Conditions: for % change of sum of lymphnodes: vs baseline sum; for Sum of lymphnodes: Day 0 pre treatment sum 16.9
Procedure: Compound (21) was evaluated for efficacy in a dog with naturally occurring non-Hodgkin's lymphoma (NHL). Canine NHL has proven to be a relevant model for preclinical evaluation of new therapeutics, both for initial induction and rescue of drug-resistant relapse (Reference Vail D M, Thamm D H. Spontaneously occurring tumors in companion animals as models for drug development. In: Teisher B A, ed. Anticancer Drug Development Guide. 2nd ed. Totowa (NJ): Humana Press Inc; 2004; 259-286.) Evaluation of novel therapeutic approaches in dogs with spontaneous cancer offers potential benefit to canine patients and a rapid assessment of therapeutic index. Because the tumors arise spontaneously in an immunologically intact host and have greater heterogeneity than passaged cell lines, it is not surprising that responses to standard chemotherapeutic agents in canine malignancies are similar to those of the corresponding tumors in man and that the preclinical results attained may be more predictive of the activity in humans (references; Khanna C, Paoloni M. Translation of new cancer treatments from pet dogs to humans. Nature Rev Cancer. 2008; 8:7-16.; Vail D M, Young K M. Canine lymphoma and lymphoid leukemia. In: Withrow S J, Vail D M, eds. Small Animal Clinical Oncology. 4th Ed. St. Louis (MO): Saunders; 2007. p. 699-733.) Non-Hodgkin's lymphoma in dogs represents a relatively homogenous population with respect to histological type as defined by the REAL/WHO or NCI-Working Formulation schema (i.e., 85% are medium- to high-grade B-cell NHL) with the majority being diffuse large B-cell lymphoma (reference Jacobs R M, Messick J B, Valli V E. Tumors of the hemolymphatic system. In: Meuten D J, editor. Tumors in Domestic Animals. 4th Ed. Ames (IA): Iowa State Press; 2002:119-198).
Compound (21) was administered at a dose of 0.3 mg/kg of body weight by 30 minute IV infusion in Sterile Saline Injection (0.9% sodium chloride for injection) (total volume 2 ml/kg or 100 ml) once every 21 days to a dog that had non-Hodgkin's lymphoma involving multiple lymphnodes. Diagnosis was confirmed by histological evaluation of the tumor. The effect of treatment on the tumor was measured using the Response Evaluation Criteria in Solid Tumors (RECIST) Guideline (Therasse et al 2000). The size of the tumors and response to treatment was evaluated by in these peripherally accessible lymph nodes, by measuring the longest dimension using callipers and evaluating changes in the individual tumor measurement and their sums. […] Confirmation was done by cytological examination of an aspirated biopsy to confirm the absence of tumor cells.

[1] = Day 7 (printed under the Day 1 column)
[2] = Day 14 (printed under the Day 7 column)
[3] = Day 21 (printed under the Day 14 column)
[4] = Day 28 (printed under the Day 21 column)
[5] = Day 42 (printed under the Day 28 column)

CCCOc1nc(N)nc2c1ncn2CCOCP(=O)(N1CCC[C@H]1C(=O)OCC)N1CCC[C@H]1C(=O)OCC [Example 21]
% change of sum of lymphnodes (Day 1 (printed under the Day 0 column)): −13.0%
Lymphnode L PopLN longest dimension (Day 1, 0.3 mg/kg IV once every 21 days, Day 0 pre treatment 2.3): 2.1 cm
Lymphnode R SMLN longest dimension (Day 1, 0.3 mg/kg IV once every 21 days, Day 0 pre treatment 2.9): 3.1 cm
Lymphnode L SMLN longest dimension (Day 1, 0.3 mg/kg IV once every 21 days, Day 0 pre treatment 3.1): 2.0 cm
Lymphnode R PSLN longest dimension (Day 1, 0.3 mg/kg IV once every 21 days, Day 0 pre treatment 3.6): 3.6 cm
Lymphnode L PSLN longest dimension (Day 1, 0.3 mg/kg IV once every 21 days, Day 0 pre treatment 5.0): 3.9 cm
Sum of lymphnodes (Day 1, 0.3 mg/kg IV once every 21 days): 14.7 cm
Change of sum of lymphnodes (Day 1 vs Day 0 pre treatment sum 16.9): −2.2 cm
Response (RECIST) [1]: PR (Partial Response (PR) if at least a 30% decrease in the sum of the LD of target lesions, taking as reference the baseline sum)
% change of sum of lymphnodes [1]: −66.3%
Lymphnode L PopLN longest dimension (Day 7, 0.3 mg/kg IV once every 21 days, Day 0 pre treatment 2.3): 1.6 cm
Lymphnode R SMLN longest dimension (Day 7, 0.3 mg/kg IV once every 21 days, Day 0 pre treatment 2.9): 1.0 cm
Lymphnode L SMLN longest dimension (Day 7, 0.3 mg/kg IV once every 21 days, Day 0 pre treatment 3.1): 1.1 cm
Lymphnode R PSLN longest dimension (Day 7, 0.3 mg/kg IV once every 21 days, Day 0 pre treatment 3.6): 1.0 cm
Lymphnode L PSLN longest dimension (Day 7, 0.3 mg/kg IV once every 21 days, Day 0 pre treatment 5.0): 1.0 cm
Sum of lymphnodes (Day 7): 5.7 cm
Change of sum of lymphnodes (Day 7 vs Day 0 pre treatment sum 16.9): −11.2 cm
Response (RECIST) [2]: PR (Partial Response (PR) if at least a 30% decrease in the sum of the LD of target lesions, taking as reference the baseline sum)
% change of sum of lymphnodes [2]: −69.2%
Lymphnode L PopLN longest dimension (Day 14, 0.3 mg/kg IV once every 21 days, Day 0 pre treatment 2.3): 1.0 cm
Lymphnode R SMLN longest dimension (Day 14, 0.3 mg/kg IV once every 21 days, Day 0 pre treatment 2.9): 1.0 cm
Lymphnode L SMLN longest dimension (Day 14, 0.3 mg/kg IV once every 21 days, Day 0 pre treatment 3.1): 1.0 cm
Lymphnode R PSLN longest dimension (Day 14, 0.3 mg/kg IV once every 21 days, Day 0 pre treatment 3.6): 1.0 cm
Lymphnode L PSLN longest dimension (Day 14, 0.3 mg/kg IV once every 21 days, Day 0 pre treatment 5.0): 1.2 cm
Sum of lymphnodes (Day 14): 5.2 cm
Change of sum of lymphnodes (Day 14 vs Day 0 pre treatment sum 16.9): −11.7 cm
Lymphnode L PopLN longest dimension (Day 21 (Treatment #2), 0.3 mg/kg IV once every 21 days, Day 0 pre treatment 2.3): 1.3 cm
Lymphnode R SMLN longest dimension (Day 21 (Treatment #2), 0.3 mg/kg IV once every 21 days, Day 0 pre treatment 2.9): 2.0 cm
Lymphnode L SMLN longest dimension (Day 21 (Treatment #2), 0.3 mg/kg IV once every 21 days, Day 0 pre treatment 3.1): 2.3 cm
Lymphnode R PSLN longest dimension (Day 21 (Treatment #2), 0.3 mg/kg IV once every 21 days, Day 0 pre treatment 3.6): 2.7 cm
Lymphnode L PSLN longest dimension (Day 21 (Treatment #2), 0.3 mg/kg IV once every 21 days, Day 0 pre treatment 5.0): 2.8 cm
Sum of lymphnodes (Day 21 (Treatment #2)): 11.1 cm
Response (RECIST) [3]: PR (Partial Response (PR) if at least a 30% decrease in the sum of the LD of target lesions, taking as reference the baseline sum)
% change of sum of lymphnodes [3]: −34.3%
Change of sum of lymphnodes (Day 21 vs Day 0 pre treatment sum 16.9): −5.8 cm
Response (RECIST) [4]: PR (Partial Response (PR) if at least a 30% decrease in the sum of the LD of target lesions, taking as reference the baseline sum)
% change of sum of lymphnodes [4]: −67.5%
Lymphnode R SMLN longest dimension (Day 28, 0.3 mg/kg IV once every 21 days, Day 0 pre treatment 2.9): 1.0 cm
Lymphnode L SMLN longest dimension (Day 28, 0.3 mg/kg IV once every 21 days, Day 0 pre treatment 3.1): 1.5 cm
Lymphnode R PSLN longest dimension (Day 28, 0.3 mg/kg IV once every 21 days, Day 0 pre treatment 3.6): 1.5 cm
Lymphnode L PSLN longest dimension (Day 28, 0.3 mg/kg IV once every 21 days, Day 0 pre treatment 5.0): 1.5 cm
Sum of lymphnodes (Day 28): 5.5 cm
Change of sum of lymphnodes (Day 28 vs Day 0 pre treatment sum 16.9): −11.4 cm
Lymphnode L PopLN size (Day 42 (Treatment #3), 0.3 mg/kg IV once every 21 days, Day 0 pre treatment 2.3): WNL
Lymphnode R SMLN size (Day 42 (Treatment #3), 0.3 mg/kg IV once every 21 days, Day 0 pre treatment 2.9): WNL
Lymphnode L SMLN size (Day 42 (Treatment #3), 0.3 mg/kg IV once every 21 days, Day 0 pre treatment 3.1): WNL**
Lymphnode R PSLN size (Day 42 (Treatment #3), 0.3 mg/kg IV once every 21 days, Day 0 pre treatment 3.6): WNL
Lymphnode L PSLN size (Day 42 (Treatment #3), 0.3 mg/kg IV once every 21 days, Day 0 pre treatment 5.0): WNL
Response (RECIST) [5]: CR (Complete Response (CR) if lymphnodes returned to a size within normal limits)
% change of sum of lymphnodes [5]: −100%
Response to treatment (after one treatment, 0.3 mg/kg IV): Partial Response
reduction in tumor size (starting on Day 7 after the first treatment, continued improvement to day 42): significant reduction in tumor size
Response to treatment (with continued treatment, 0.3 mg/kg IV once every 21 days): Complete Response with complete elimination of the tumor
